Experimental data taken from ChEMBL document CHEMBL2150993, “Substituted thiazoles VII. Synthesis and antitumor activity of certain 2-(substituted amino)-4-phenyl-1,3-thiazole analogs” (2012).

Columns and labels:
Format in all cases: functional
Conditions in all cases: at 10 µM
SK-MEL-28 = assay: Growth inhibition of human SK-MEL-28 cells after 48 hrs by cell counting analysis
M14 = assay: Growth inhibition of human M14 cells after 48 hrs by cell counting analysis
A549 = assay: Growth inhibition of human A549 cells after 48 hrs by cell counting analysis
HCC 2998 = assay: Growth inhibition of human HCC2998 cells after 48 hrs by cell counting analysis
SK-MEL-5 = assay: Growth inhibition of human SK-MEL-5 cells after 48 hrs by cell counting analysis
PC-3 = assay: Growth inhibition of human PC3 cells after 48 hrs by cell counting analysis
EKVX = assay: Growth inhibition of human EKVX cells after 48 hrs by cell counting analysis
OVCAR-3 = assay: Growth inhibition of human OVCAR3 cells after 48 hrs by cell counting analysis
HT-29 = assay: Growth inhibition of human HT-29 cells after 48 hrs by cell counting analysis
SN12C = assay: Growth inhibition of human SN12C cells after 48 hrs by cell counting analysis
CAKI-1 = assay: Growth inhibition of human Caki1 cells after 48 hrs by cell counting analysis
SNB-75 = assay: Growth inhibition of human SNB75 cells after 48 hrs by cell counting analysis
U-251 = assay: Growth inhibition of human U251 cells after 48 hrs by cell counting analysis
RXF 393 = assay: Growth inhibition of human RXF393 cells after 48 hrs by cell counting analysis
MDA-MB-435 = assay: Growth inhibition of human MDA-MB-435 cells after 48 hrs by cell counting analysis
MOLT-4 = assay: Growth inhibition of human MOLT4 cells after 48 hrs by cell counting analysis
RPMI-8226 = assay: Growth inhibition of human RPMI8226 cells after 48 hrs by cell counting analysis
UACC-257 = assay: Growth inhibition of human UACC257 cells after 48 hrs by cell counting analysis
KM12 = assay: Growth inhibition of human KM12 cells after 48 hrs by cell counting analysis
NCI-H522 = assay: Growth inhibition of human NCI-H522 cells after 48 hrs by cell counting analysis
TK-10 = assay: Growth inhibition of human TK10 cells after 48 hrs by cell counting analysis
MCF7 = assay: Growth inhibition of human MCF7 cells after 48 hrs by cell counting analysis
UACC-62 = assay: Growth inhibition of human UACC62 cells after 48 hrs by cell counting analysis
SF-268 = assay: Growth inhibition of human SF268 cells after 48 hrs by cell counting analysis
T47D = assay: Growth inhibition of human T47D cells after 48 hrs by cell counting analysis
BT-549 = assay: Growth inhibition of human BT549 cells after 48 hrs by cell counting analysis
SR = assay: Growth inhibition of human SR cells after 48 hrs by cell counting analysis
CCRF-CEM = assay: Growth inhibition of human CCRF-CEM cells after 48 hrs by cell counting analysis
LOX IMVI = assay: Growth inhibition of human LOXIMVI cells after 48 hrs by cell counting analysis
HOP-62 = assay: Growth inhibition of human HOP62 cells after 48 hrs by cell counting analysis
OVCAR-4 = assay: Growth inhibition of human OVCAR4 cells after 48 hrs by cell counting analysis
SF-539 = assay: Growth inhibition of human SF539 cells after 48 hrs by cell counting analysis
HCT-116 = assay: Growth inhibition of human HCT116 cells after 48 hrs by cell counting analysis
UO-31 = assay: Growth inhibition of human UO31 cells after 48 hrs by cell counting analysis
SNB-19 = assay: Growth inhibition of human SNB19 cells after 48 hrs by cell counting analysis
IGROV-1 = assay: Growth inhibition of human IGROV1 cells after 48 hrs by cell counting analysis
HOP-92 = assay: Growth inhibition of human HOP92 cells after 48 hrs by cell counting analysis
HCT-15 = assay: Growth inhibition of human HCT15 cells after 48 hrs by cell counting analysis
HL-60 = assay: Growth inhibition of human HL60 cells after 48 hrs by cell counting analysis
NCI-H226 = assay: Growth inhibition of human NCI-H226 cells after 48 hrs by cell counting analysis
NCI-H23 = assay: Growth inhibition of human NCI-H23 cells after 48 hrs by cell counting analysis
SF-295 = assay: Growth inhibition of human SF295 cells after 48 hrs by cell counting analysis
[1] = Growth inhibition of human NCI-ADR-RES cells after 48 hrs by cell counting analysis
K562 = assay: Growth inhibition of human K562 cells after 48 hrs by cell counting analysis
SW-620 = assay: Growth inhibition of human SW620 cells after 48 hrs by cell counting analysis
ACHN = assay: Growth inhibition of human ACHN cells after 48 hrs by cell counting analysis
Malme-3M = assay: Growth inhibition of human MALME-3M cells after 48 hrs by cell counting analysis
SK-MEL-2 = assay: Growth inhibition of human SK-MEL-2 cells after 48 hrs by cell counting analysis
MDA-MB-468 = assay: Growth inhibition of human MDA-MB-468 cells after 48 hrs by cell counting analysis
OVCAR-8 = assay: Growth inhibition of human OVCAR8 cells after 48 hrs by cell counting analysis
MDA-MB-231 = assay: Growth inhibition of human MDA-MB-231 cells after 48 hrs by cell counting analysis
OVCAR-5 = assay: Growth inhibition of human OVCAR5 cells after 48 hrs by cell counting analysis
SK-OV-3 = assay: Growth inhibition of human SKOV3 cells after 48 hrs by cell counting analysis
[2] = Growth inhibition of human NCI-322M cells after 48 hrs by cell counting analysis

Cc1ccc(-c2csc(NC(=O)CCN3CCN(c4ccccc4)CC3)n2)cc1
growth inhibition (GI) (SK-MEL-28): <10% | growth inhibition (GI) (M14): <10% | growth inhibition (GI) (A549): 23.8% | growth inhibition (GI) (HCC 2998): <10% | growth inhibition (GI) (SK-MEL-5): <10% | growth inhibition (GI) (PC-3): 16.1% | growth inhibition (GI) (EKVX): 16.6% | growth inhibition (GI) (OVCAR-3): <10% | growth inhibition (GI) (HT-29): <10% | growth inhibition (GI) (SN12C): <10% | growth inhibition (GI) (CAKI-1): 14.1% | growth inhibition (GI) (SNB-75): <10% | growth inhibition (GI) (U-251): <10% | growth inhibition (GI) (RXF 393): <10% | growth inhibition (GI) (MDA-MB-435): <10% | growth inhibition (GI) (MOLT-4): 14.9% | growth inhibition (GI) (RPMI-8226): <10% | growth inhibition (GI) (UACC-257): <10% | growth inhibition (GI) (KM12): <10% | growth inhibition (GI) (NCI-H522): <10% | growth inhibition (GI) (TK-10): <10% | growth inhibition (GI) (MCF7): <10% | growth inhibition (GI) (UACC-62): 16.3% | growth inhibition (GI) (SF-268): <10% | growth inhibition (GI) (T47D): <10% | growth inhibition (GI) (BT-549): <10% | growth inhibition (GI) (SR): <10% | growth inhibition (GI) (CCRF-CEM): <10% | growth inhibition (GI) (LOX IMVI): <10% | growth inhibition (GI) (HOP-62): <10% | growth inhibition (GI) (OVCAR-4): 11.1% | growth inhibition (GI) (SF-539): <10% | growth inhibition (GI) (HCT-116): <10% | growth inhibition (GI) (UO-31): 41.2% | growth inhibition (GI) (SNB-19): <10% | growth inhibition (GI) (IGROV-1): 14.9% | growth inhibition (GI) (HOP-92): 10.2% | growth inhibition (GI) (HCT-15): <10% | growth inhibition (GI) (HL-60): <10% | growth inhibition (GI) (NCI-H226): <10% | growth inhibition (GI) (NCI-H23): 14.5% | growth inhibition (GI) (SF-295): <10% | growth inhibition (GI) [1]: <10% | growth inhibition (GI) (K562): <10% | growth inhibition (GI) (SW-620): <10% | growth inhibition (GI) (ACHN): <10% | growth inhibition (GI) (Malme-3M): 12.1% | growth inhibition (GI) (SK-MEL-2): <10% | growth inhibition (GI) (MDA-MB-468): <10% | growth inhibition (GI) (OVCAR-8): <10% | growth inhibition (GI) (MDA-MB-231): <10% | growth inhibition (GI) (OVCAR-5): <10% | growth inhibition (GI) (SK-OV-3): <10% | growth inhibition (GI) [2]: 15.6%

Cn1cc(NC(=O)c2cc(NC(=O)CNC(=N)N)cn2C)cc1C(=O)NCCC(=N)N [NETROPSIN]
growth inhibition (GI) (SK-MEL-28): <10% | growth inhibition (GI) (M14): <10% | growth inhibition (GI) (A549): 10.3% | growth inhibition (GI) (HCC 2998): <10% | growth inhibition (GI) (SK-MEL-5): 23.7% | growth inhibition (GI) (PC-3): 17.8% | growth inhibition (GI) (EKVX): 19.5% | growth inhibition (GI) (OVCAR-3): <10% | growth inhibition (GI) (HT-29): 10.8% | growth inhibition (GI) (SN12C): <10% | growth inhibition (GI) (CAKI-1): 28.9% | growth inhibition (GI) (SNB-75): 29.8% | growth inhibition (GI) (U-251): <10% | growth inhibition (GI) (RXF 393): <10% | growth inhibition (GI) (MDA-MB-435): <10% | growth inhibition (GI) (MOLT-4): 33.2% | growth inhibition (GI) (RPMI-8226): 28.9% | growth inhibition (GI) (UACC-257): <10% | growth inhibition (GI) (KM12): <10% | growth inhibition (GI) (NCI-H522): 28.2% | growth inhibition (GI) (TK-10): <10% | growth inhibition (GI) (MCF7): 13.7% | growth inhibition (GI) (UACC-62): 29% | growth inhibition (GI) (SF-268): <10% | growth inhibition (GI) (T47D): 25.2% | growth inhibition (GI) (BT-549): 12.9% | growth inhibition (GI) (SR): <10% | growth inhibition (GI) (CCRF-CEM): 15.3% | growth inhibition (GI) (LOX IMVI): <10% | growth inhibition (GI) (HOP-62): 10.9% | growth inhibition (GI) (OVCAR-4): <10% | growth inhibition (GI) (SF-539): <10% | growth inhibition (GI) (HCT-116): 10.7% | growth inhibition (GI) (UO-31): 30.6% | growth inhibition (GI) (SNB-19): 10.5% | growth inhibition (GI) (IGROV-1): 17.4% | growth inhibition (GI) (HOP-92): <10% | growth inhibition (GI) (HCT-15): <10% | growth inhibition (GI) (HL-60): 12.6% | growth inhibition (GI) (NCI-H226): 14.5% | growth inhibition (GI) (NCI-H23): 13.9% | growth inhibition (GI) (SF-295): 14.4% | growth inhibition (GI) [1]: 17% | growth inhibition (GI) (K562): 25.1% | growth inhibition (GI) (SW-620): <10% | growth inhibition (GI) (ACHN): <10% | growth inhibition (GI) (Malme-3M): 12.4% | growth inhibition (GI) (SK-MEL-2): <10% | growth inhibition (GI) (MDA-MB-468): 25.7% | growth inhibition (GI) (OVCAR-8): <10% | growth inhibition (GI) (MDA-MB-231): 23.4% | growth inhibition (GI) (OVCAR-5): <10% | growth inhibition (GI) (SK-OV-3): <10% | growth inhibition (GI) [2]: 11.1%
